Literature values, collected in patent US12295729B2, “Apparatus and method for delivery of antimicrobial during a transdermal sampling and delivery process” (Georgetown University, priority 2015, dated 2025).

Key:
[1] = system: Achromobacter xylosoxidans
[2] = system: Aggregatibacter actinomycetemcomitans
[3] = system: Burkholderia pseudomallei
[4] = system: Burkholderia thailandensis
[5] = system: Porphyromonas circumdentaria
[6] = system: Prevotella melaninogenica
[7] = system: Stenotrophomonas maltophilia

Measured: bacteria killing ability

LL-37 (LLGDFFRKSKEKIGKEFKRIVQRIKDFLRNLVPRTES; Antibacterial peptide LL-37; UniProt P49913 134-170, looked up) [antimicrobial peptide; the factotum human cathelicidin peptide]
kill: Bacillus anthracis | Enterococcus faecalis | Group A streptococcus | Group B Streptococcus | Lactobacillus casei | Listeria monocytogenes | Micrococcus luteus | Nocardia sp. | Propionibacterium acnes | Staphylococcus aureus | Streptococcus mutans | Streptococcus pneumonia | Borrelia spp. | Mycobacterium bovis | Mycobacterium smegmatis | [1] | Acinetobacter baumannii | [2] | Brucella suis | [3] | Burkholderia cepacia | [4] | Capnocytophaga spp. | Escherichia coli | Francisella novicida | Fusobacterium nucleatum | Haemophilus influenza | Helicobacter pylori | Klebsiella pneumonia | Leptospira interrogans | Mannheimia haemolytica | Pasteurella multocida | [5] | Porphyromonas gingivalis | Prevotella intermedia | Prevotella loescheii | [6] | Pseudomonas aeruginosa | Salmonella sp. | Shigella sp. | [7] | Tannerella forsythia | Treponema denticola | Treponema pallidum | Yersinia pestis
